Source: ChEMBL document CHEMBL3745696, “Synthesis and cytotoxic activity of novel hexahydropyrrolo[2,3-b]indole imidazolium salts” (Bioorg Med Chem Lett, 2016)

Tests used:
[1] = Cytotoxicity against human HL60 cells by MTT assay; type: functional, cell-based; conditions: HL-60
[2] = Cytotoxicity against human SMMC7721 cells by MTT assay; type: functional, cell-based; conditions: SMMC-7721
A549 [3] = test: Cytotoxicity against human A549 cells by MTT assay; type: functional, cell-based
MCF7 [4] = test: Cytotoxicity against human MCF7 cells by MTT assay; type: functional, cell-based
SW480 [5] = test: Cytotoxicity against human SW480 cells by MTT assay; type: functional, cell-based
[6] = Potency index, ratio IC50 of cisplatin to IC50 of compound for cytotoxicity against human SMMC7721 cells; type: functional, SMMC-7721
A549 [7] = test: Potency index, ratio IC50 of cisplatin to IC50 of compound for cytotoxicity against human A549 cells; type: functional
SW480 [8] = test: Potency index, ratio IC50 of cisplatin to IC50 of compound for cytotoxicity against human SW480 cells; type: functional
MCF7 [9] = test: Potency index, ratio IC50 of cisplatin to IC50 of compound for cytotoxicity against human MCF7 cells; type: functional

Structure (SMILES): Cc1n(CC(=O)N2CCC3(C)c4ccccc4N(C)C23)c2ccccc2[n+]1CC(=O)c1ccc2ccccc2c1 (centres undefined)
- IC50 [1]: 5.95 µM
- IC50 [2]: 7.09 µM
- IC50 (A549 [3]): 7.64 µM
- IC50 (MCF7 [4]): 9.45 µM
- IC50 (SW480 [5]): 10.1 µM

Structure (SMILES): Cc1cc2c(cc1C)[n+](Cc1ccc3ccccc3c1)cn2CC(=O)N1CCC2(C)c3ccccc3N(C)C12 (centres undefined)
- IC50 [1]: 1.35 µM
- IC50 [2]: 4.03 µM
- IC50 (A549 [3]): 6.18 µM
- IC50 (MCF7 [4]): 1.84 µM
- IC50 (SW480 [5]): 4.54 µM

Structure (SMILES): COc1ccc(C(=O)C[n+]2c(C)n(CC(=O)N3CCC4(C)c5ccccc5N(C)C34)c3ccccc32)cc1 (centres undefined)
- IC50 [1]: > 20 µM
- IC50 [2]: > 20 µM
- IC50 (A549 [3]): > 20 µM
- IC50 (MCF7 [4]): > 20 µM
- IC50 (SW480 [5]): > 20 µM

Structure (SMILES): CN1c2ccccc2C2(C)CCN(C(=O)Cn3cnc4ccccc43)C12 (centres undefined)
- IC50 [1]: > 20 µM
- IC50 [2]: > 20 µM
- IC50 (A549 [3]): > 20 µM
- IC50 (MCF7 [4]): > 20 µM
- IC50 (SW480 [5]): > 20 µM

Structure (SMILES): Cc1cc2c(cc1C)[n+](Cc1ccccc1Br)cn2CC(=O)N1CCC2(C)c3ccccc3N(C)C12 (centres undefined)
- IC50 [1]: 1.67 µM
- IC50 [2]: 5.61 µM
- IC50 (A549 [3]): 12.7 µM
- IC50 (MCF7 [4]): 6.28 µM
- IC50 (SW480 [5]): 7.24 µM

Structure (SMILES): Cc1cc2c(cc1C)[n+](CC(=O)c1ccccc1)cn2CC(=O)N1CCC2(C)c3ccccc3N(C)C12 (centres undefined)
- IC50 [1]: 8.03 µM
- IC50 [2]: > 20 µM
- IC50 (A549 [3]): > 20 µM
- IC50 (MCF7 [4]): 13.4 µM
- IC50 (SW480 [5]): > 20 µM

Structure (SMILES): Cc1n(CC(=O)N2CCC3(C)c4ccccc4N(C)C23)c2ccccc2[n+]1Cc1ccc2ccccc2c1 (centres undefined)
- IC50 [1]: 1.49 µM
- IC50 [2]: 4.34 µM
- IC50 (A549 [3]): 16.7 µM
- IC50 (MCF7 [4]): 5.09 µM
- IC50 (SW480 [5]): 7.36 µM

Structure (SMILES): Cc1cc2c(cc1C)[n+](Cc1ccccc1Br)cn2CC(=O)N1CCC2(C)c3ccccc3N(Cc3ccccc3)C12.[Br-] (centres undefined)
- IC50 [1]: 1.27 µM
- IC50 [2]: 1.72 µM
- IC50 (A549 [3]): 2.68 µM
- IC50 (MCF7 [4]): 1.78 µM
- IC50 (SW480 [5]): 1.44 µM
- Ratio IC50 [6]: 4.7
- Ratio IC50 (A549 [7]): 2.6
- Ratio IC50 (SW480 [8]): 6.2

Structure (SMILES): Cc1n(CC(=O)N2CCC3(C)c4ccccc4N(C)C23)c2ccccc2[n+]1Cc1ccccc1Br (centres undefined)
- IC50 [1]: 3.72 µM
- IC50 [2]: 10.8 µM
- IC50 (A549 [3]): > 20 µM
- IC50 (MCF7 [4]): 8.95 µM
- IC50 (SW480 [5]): > 20 µM

Structure (SMILES): Cc1cc2c(cc1C)[n+](CC(=O)c1ccc(Br)cc1)cn2CC(=O)N1CCC2(C)c3ccccc3N(C)C12 (centres undefined)
- IC50 [1]: 7.31 µM
- IC50 [2]: 8.72 µM
- IC50 (A549 [3]): > 20 µM
- IC50 (MCF7 [4]): 8.28 µM
- IC50 (SW480 [5]): 8.52 µM

Structure (SMILES): CC12CCN(C(=O)Cn3cnc4ccccc43)C1N(Cc1ccccc1)c1ccccc12 (centres undefined)
- IC50 [1]: > 20 µM
- IC50 [2]: > 20 µM
- IC50 (A549 [3]): > 20 µM
- IC50 (MCF7 [4]): > 20 µM
- IC50 (SW480 [5]): > 20 µM

Structure (SMILES): Cc1cc2c(cc1C)[n+](CC(=O)c1ccc3ccccc3c1)cn2CC(=O)N1CCC2(C)c3ccccc3N(C)C12 (centres undefined)
- IC50 [1]: 1.6 µM
- IC50 [2]: 2.85 µM
- IC50 (A549 [3]): 6.47 µM
- IC50 (MCF7 [4]): 4.88 µM
- IC50 (SW480 [5]): 5.01 µM

Structure (SMILES): Cc1cc2ncn(CC(=O)N3CCC4(C)c5ccccc5N(Cc5ccccc5)C34)c2cc1C (centres undefined)
- IC50 [1]: > 20 µM
- IC50 [2]: > 20 µM
- IC50 (A549 [3]): > 20 µM
- IC50 (MCF7 [4]): > 20 µM
- IC50 (SW480 [5]): > 20 µM

Structure (SMILES): Cc1n(CC(=O)N2CCC3(C)c4ccccc4N(Cc4ccccc4)C23)c2ccccc2[n+]1Cc1ccc2ccccc2c1.[Br-] (centres undefined)
- IC50 [1]: 1.38 µM
- IC50 [2]: 1.8 µM
- IC50 (A549 [3]): 6.26 µM
- IC50 (MCF7 [4]): 1.46 µM
- IC50 (SW480 [5]): 1.64 µM
- Ratio IC50 (MCF7 [9]): 7.2

Structure (SMILES): CC12CCNC1N(Cc1ccccc1)c1ccccc12 (centres undefined)
- IC50 [1]: > 20 µM
- IC50 [2]: > 20 µM
- IC50 (A549 [3]): > 20 µM
- IC50 (MCF7 [4]): > 20 µM
- IC50 (SW480 [5]): > 20 µM

Structure (SMILES): Cc1ccc(C[n+]2c(C)n(CC(=O)N3CCC4(C)c5ccccc5N(C)C34)c3ccccc32)cc1 (centres undefined)
- IC50 [1]: 2.25 µM
- IC50 [2]: 8.03 µM
- IC50 (A549 [3]): > 20 µM
- IC50 (MCF7 [4]): 10.8 µM
- IC50 (SW480 [5]): > 20 µM

Structure (SMILES): Cc1n(CC(=O)N2CCC3(C)c4ccccc4N(C)C23)c2ccccc2[n+]1CC(=O)c1ccc(Br)cc1 (centres undefined)
- IC50 [1]: > 20 µM
- IC50 [2]: > 20 µM
- IC50 (A549 [3]): > 20 µM
- IC50 (MCF7 [4]): > 20 µM
- IC50 (SW480 [5]): > 20 µM

Structure (SMILES): Cc1cc2c(cc1C)[n+](Cc1ccc(Br)cc1)cn2CC(=O)N1CCC2(C)c3ccccc3N(C)C12 (centres undefined)
- IC50 [1]: 1.73 µM
- IC50 [2]: 5.69 µM
- IC50 (A549 [3]): 17.4 µM
- IC50 (MCF7 [4]): 3.08 µM
- IC50 (SW480 [5]): 6.9 µM

Structure (SMILES): Cc1ccc(C[n+]2cn(CC(=O)N3CCC4(C)c5ccccc5N(C)C34)c3cc(C)c(C)cc32)cc1 (centres undefined)
- IC50 [1]: 1.52 µM
- IC50 [2]: 4.52 µM
- IC50 (A549 [3]): 10.5 µM
- IC50 (MCF7 [4]): 5.79 µM
- IC50 (SW480 [5]): 7.57 µM

Structure (SMILES): Cc1nc2ccccc2n1CC(=O)N1CCC2(C)c3ccccc3N(C)C12 (centres undefined)
- IC50 [1]: > 20 µM
- IC50 [2]: > 20 µM
- IC50 (A549 [3]): > 20 µM
- IC50 (MCF7 [4]): > 20 µM
- IC50 (SW480 [5]): > 20 µM

Structure (SMILES): Cc1nc2ccccc2n1CC(=O)N1CCC2(C)c3ccccc3N(Cc3ccccc3)C12 (centres undefined)
- IC50 [1]: > 20 µM
- IC50 [2]: > 20 µM
- IC50 (A549 [3]): > 20 µM
- IC50 (MCF7 [4]): > 20 µM
- IC50 (SW480 [5]): > 20 µM

Structure (SMILES): COc1ccc(C(=O)C[n+]2cn(CC(=O)N3CCC4(C)c5ccccc5N(C)C34)c3cc(C)c(C)cc32)cc1 (centres undefined)
- IC50 [1]: 6.23 µM
- IC50 [2]: 7.49 µM
- IC50 (A549 [3]): > 20 µM
- IC50 (MCF7 [4]): 8.15 µM
- IC50 (SW480 [5]): 11.1 µM

Structure (SMILES): CN1c2ccccc2C2(C)CCNC12 (centres undefined)
- IC50 [1]: > 20 µM
- IC50 [2]: > 20 µM
- IC50 (A549 [3]): > 20 µM
- IC50 (MCF7 [4]): > 20 µM
- IC50 (SW480 [5]): > 20 µM

Structure (SMILES): CN1c2ccccc2C2(C)CCN(C(=O)Cn3ccnc3)C12 (centres undefined)
- IC50 [1]: > 20 µM
- IC50 [2]: > 20 µM
- IC50 (A549 [3]): > 20 µM
- IC50 (MCF7 [4]): > 20 µM
- IC50 (SW480 [5]): > 20 µM

Structure (SMILES): Cc1nccn1CC(=O)N1CCC2(C)c3ccccc3N(C)C12 (centres undefined)
- IC50 [1]: > 20 µM
- IC50 [2]: > 20 µM
- IC50 (A549 [3]): > 20 µM
- IC50 (MCF7 [4]): > 20 µM
- IC50 (SW480 [5]): > 20 µM

Structure (SMILES): Cc1nccn1CC(=O)N1CCC2(C)c3ccccc3N(Cc3ccccc3)C12 (centres undefined)
- IC50 [1]: > 20 µM
- IC50 [2]: > 20 µM
- IC50 (A549 [3]): > 20 µM
- IC50 (MCF7 [4]): > 20 µM
- IC50 (SW480 [5]): > 20 µM

Structure (SMILES): c1c[nH]cn1 [IMIDAZOLE]
- IC50 [1]: > 20 µM
- IC50 [2]: > 20 µM
- IC50 (A549 [3]): > 20 µM
- IC50 (MCF7 [4]): > 20 µM
- IC50 (SW480 [5]): > 20 µM
